Reference: patent US12419877B2, “Solid forms of {[5-(3-chlorophenyl)-3-hydroxypyridine-2-carbonyl]amino}acetic acid, compositions, and uses thereof” (Akebia Therapeutics, Inc., priority 2013, dated 2025)
Values after ≈ are worked out from the molar mass of the structure shown. Read-outs that look alike come from different tables or passages of the source.

Assay: Solubility experiments (approximate solubility by solvent aliquot addition)
Assay type: physicochemical
Details: thermodynamic from solid
Method: Approximately 20 mg of Form A of Compound (1) was placed in each of 48 vials and 5 volume aliquots of the appropriate solvent systems were added to the appropriate vial. Between each addition, the mixture was checked for dissolution and if no dissolution was apparent, the mixture was warmed to ca. 50° C. and checked again. This procedure was continued until dissolution was observed or until 100 volumes of solvent had been added.

In the case of `O=C(O)CNC(=O)c1ncc(-c2cccc(Cl)c2)cc1O` [Form A of Compound (I), {[5-(3-chlorophenyl)-3-hydroxypyridine-2-carbonyl]amino}acetic acid], the solubility (organic solvent or mixture, Solvent: Diethyl ether, RT (ca. 22° C.), read-out: Solubility (mg/mL) RT (ca. 22° C.)) is reported as less than 10 mg/mL, the solubility (organic solvent or mixture, Solvent: Diethyl ether, ca. 50° C., read-out: Solubility (mg/mL) (ca. 50° C.)) is reported as 10 mg/mL (≈ 32.6 mM) and the solubility (organic solvent or mixture, Solvent: Diisopropyl ether (DIPE), RT (ca. 22° C.), read-out: Solubility (mg/mL) RT (ca. 22° C.)) is reported as less than 10 mg/mL. The solubility (organic solvent or mixture, Solvent: Diisopropyl ether (DIPE), ca. 50° C., read-out: Solubility (mg/mL) (ca. 50° C.)) was less than 10 mg/mL, the solubility (organic solvent or mixture, Solvent: Dimethyl sulfoxide (DMSO), RT (ca. 22° C.), read-out: Solubility (mg/mL) RT (ca. 22° C.)) was greater than 200 mg/mL and the solubility (organic solvent or mixture, Solvent: Dimethyl sulfoxide (DMSO), ca. 50° C., read-out: Solubility (mg/mL) (ca. 50° C.)) was greater than 200 mg/mL. The solubility (organic solvent or mixture, Solvent: Dimethylacetamide (DMA), RT (ca. 22° C.), read-out: Solubility (mg/mL) RT (ca. 22° C.)) was greater than 200 mg/mL, the solubility (organic solvent or mixture, Solvent: Dimethylacetamide (DMA), ca. 50° C., read-out: Solubility (mg/mL) (ca. 50° C.)) was greater than 200 mg/mL and the solubility (organic solvent or mixture, Solvent: Dimethylformamide (DMF), RT (ca. 22° C.), read-out: Solubility (mg/mL) RT (ca. 22° C.)) was greater than 200 mg/mL. For the same compound, the solubility (organic solvent or mixture, Solvent: Dimethylformamide (DMF), ca. 50° C., read-out: Solubility (mg/mL) (ca. 50° C.)) was greater than 200 mg/mL, the solubility (organic solvent or mixture, Solvent: EtOAc/Cyclohexane (1:2), ca. 50° C., read-out: Solubility (mg/mL) (ca. 50° C.)) was less than 10 mg/mL and the solubility (organic solvent or mixture, Solvent: EtOAc/Toluene (1:2), RT (ca. 22° C.), read-out: Solubility (mg/mL) RT (ca. 22° C.)) was less than 14 mg/mL. For the same compound, the solubility (organic solvent or mixture, Solvent: EtOAc/Toluene (1:2), ca. 50° C., read-out: Solubility (mg/mL) (ca. 50° C.)) was 14 mg/mL (≈ 45.6 mM), the solubility (organic solvent or mixture, Solvent: Ethanol (EtOH), RT (ca. 22° C.), read-out: Solubility (mg/mL) RT (ca. 22° C.)) was 34 mg/mL (≈ 111 mM) and the solubility (organic solvent or mixture, Solvent: Ethanol (EtOH), ca. 50° C., read-out: Solubility (mg/mL) (ca. 50° C.)) was greater than 34 mg/mL. The solubility (organic solvent or mixture, Solvent: Ethyl acetate (EtOAc), RT (ca. 22° C.), read-out: Solubility (mg/mL) RT (ca. 22° C.)) was less than 41 mg/mL, the solubility (organic solvent or mixture, Solvent: Ethyl acetate (EtOAc), ca. 50° C., read-out: Solubility (mg/mL) (ca. 50° C.)) was 41 mg/mL (≈ 134 mM) and the solubility (organic solvent or mixture, Solvent: Ethylene glycol, RT (ca. 22° C.), read-out: Solubility (mg/mL) RT (ca. 22° C.)) was less than 10 mg/mL. For the same compound, the solubility (organic solvent or mixture, Solvent: Ethylene glycol, ca. 50° C., read-out: Solubility (mg/mL) (ca. 50° C.)) was less than 10 mg/mL, the solubility (organic solvent or mixture, Solvent: Heptane, RT (ca. 22° C.), read-out: Solubility (mg/mL) RT (ca. 22° C.)) was less than 10 mg/mL and the solubility (organic solvent or mixture, Solvent: Heptane, ca. 50° C., read-out: Solubility (mg/mL) (ca. 50° C.)) was less than 10 mg/mL. It also gave a solubility (organic solvent or mixture, Solvent: Isobutyl acetate (iBuOAc), RT (ca. 22° C.), read-out: Solubility (mg/mL) RT (ca. 22° C.)) of less than 20 mg/mL, a solubility (organic solvent or mixture, Solvent: Isobutyl acetate (iBuOAc), ca. 50° C., read-out: Solubility (mg/mL) (ca. 50° C.)) of 20 mg/mL (≈ 65.2 mM) and a solubility (organic solvent or mixture, Solvent: Isopropyl acetate (iPrOAc), RT (ca. 22° C.), read-out: Solubility (mg/mL) RT (ca. 22° C.)) of less than 26 mg/mL. For the same compound, the solubility (organic solvent or mixture, Solvent: Isopropyl acetate (iPrOAc), ca. 50° C., read-out: Solubility (mg/mL) (ca. 50° C.)) was 26 mg/mL (≈ 84.8 mM), the solubility (organic solvent or mixture, Solvent: MeOH/Water (1%), RT (ca. 22° C.), read-out: Solubility (mg/mL) RT (ca. 22° C.)) was less than 40 mg/mL and the solubility (organic solvent or mixture, Solvent: MeOH/Water (1%), ca. 50° C., read-out: Solubility (mg/mL) (ca. 50° C.)) was 40 mg/mL (≈ 130 mM). The solubility (organic solvent or mixture, Solvent: MeOH/Water (20%), RT (ca. 22° C.), read-out: Solubility (mg/mL) RT (ca. 22° C.)) was less than 10 mg/mL, the solubility (organic solvent or mixture, Solvent: Methanol (MeOH), RT (ca. 22° C.), read-out: Solubility (mg/mL) RT (ca. 22° C.)) was less than 51 mg/mL and the solubility (organic solvent or mixture, Solvent: Methanol (MeOH), ca. 50° C., read-out: Solubility (mg/mL) (ca. 50° C.)) was 51 mg/mL (≈ 166 mM). It also gave a solubility (organic solvent or mixture, Solvent: Methyl acetate (MeOAc), RT (ca. 22° C.), read-out: Solubility (mg/mL) RT (ca. 22° C.)) of less than 68 mg/mL, a solubility (organic solvent or mixture, Solvent: Methyl acetate (MeOAc), ca. 50° C., read-out: Solubility (mg/mL) (ca. 50° C.)) of 68 mg/mL (≈ 222 mM) and a solubility (organic solvent or mixture, Solvent: Methyl ethyl ketone (MEK), RT (ca. 22° C.), read-out: Solubility (mg/mL) RT (ca. 22° C.)) of less than 100 mg/mL. The solubility (organic solvent or mixture, Solvent: Methyl ethyl ketone (MEK), ca. 50° C., read-out: Solubility (mg/mL) (ca. 50° C.)) was 100 mg/mL (≈ 326 mM), the solubility (organic solvent or mixture, Solvent: Methyl isobutyl ketone (MIBK), RT (ca. 22° C.), read-out: Solubility (mg/mL) RT (ca. 22° C.)) was less than 34 mg/mL and the solubility (organic solvent or mixture, Solvent: Methyl isobutyl ketone (MIBK), ca. 50° C., read-out: Solubility (mg/mL) (ca. 50° C.)) was 34 mg/mL (≈ 111 mM). It also gave a solubility (organic solvent or mixture, Solvent: N-methyl-2-pyrrolidone (NMP), RT (ca. 22° C.), read-out: Solubility (mg/mL) RT (ca. 22° C.)) greater than 200 mg/mL, a solubility (organic solvent or mixture, Solvent: N-methyl-2-pyrrolidone (NMP), ca. 50° C., read-out: Solubility (mg/mL) (ca. 50° C.)) greater than 200 mg/mL and a solubility (organic solvent or mixture, Solvent: Nitromethane, RT (ca. 22° C.), read-out: Solubility (mg/mL) RT (ca. 22° C.)) of less than 10 mg/mL. For the same compound, the solubility (organic solvent or mixture, Solvent: Nitromethane, ca. 50° C., read-out: Solubility (mg/mL) (ca. 50° C.)) was less than 10 mg/mL, the solubility (organic solvent or mixture, Solvent: Tetrahydrofuran (THF), RT (ca. 22° C.), read-out: Solubility (mg/mL) RT (ca. 22° C.)) was greater than 200 mg/mL and the solubility (organic solvent or mixture, Solvent: Tetrahydrofuran (THF), ca. 50° C., read-out: Solubility (mg/mL) (ca. 50° C.)) was greater than 200 mg/mL. It also gave a solubility (organic solvent or mixture, Solvent: Toluene, RT (ca. 22° C.), read-out: Solubility (mg/mL) RT (ca. 22° C.)) of less than 10 mg/mL, a solubility (organic solvent or mixture, Solvent: Toluene, ca. 50° C., read-out: Solubility (mg/mL) (ca. 50° C.)) of less than 10 mg/mL and a solubility (organic solvent or mixture, Solvent: Trifluoroethanol (TFE), RT (ca. 22° C.), read-out: Solubility (mg/mL) RT (ca. 22° C.)) of less than 10 mg/mL. It also gave a solubility (organic solvent or mixture, Solvent: Trifluoroethanol (TFE), ca. 50° C., read-out: Solubility (mg/mL) (ca. 50° C.)) of less than 10 mg/mL, a solubility (organic solvent or mixture, Solvent: methyl tert-butyl ether (MTBE), RT (ca. 22° C.), read-out: Solubility (mg/mL) RT (ca. 22° C.)) of 14 mg/mL (≈ 45.6 mM) and a solubility (organic solvent or mixture, Solvent: methyl tert-butyl ether (MTBE), ca. 50° C., read-out: Solubility (mg/mL) (ca. 50° C.)) greater than 14 mg/mL. It also gave a solubility (Solvent: Water, RT (ca. 22° C.), read-out: Solubility (mg/mL) RT (ca. 22° C.)) of less than 10 mg/mL and a solubility (Solvent: Water, ca. 50° C., read-out: Solubility (mg/mL) (ca. 50° C.)) of less than 10 mg/mL.
